Earlier results on one compound are cited in US20250049677A1, “Oxa-Macrocyclic Musk as Fragrance Compounds” (Symrise AG, priority 2021, published 2025).

For data set [1] the following is noted: background statement on prior art.
For data set [2] the following is noted: background statement on prior art. This is another data set of the same source.

Regarding `C[C@@H]1CCCCCCCCCCCCC(=O)C1` [Muscone, (R)-3-methylcyclopentadecanone], the Solubility in water entry in data set [1] is listed as “only very slightly soluble in water”. Moreover, the Biodegradability entry in data set [2] is given as “badly biodegradable”.
